# Test results published in the supplement of paper PMC8253809.
# Tests used:
# Test in all cases: area under dose-response curve of % growth inhibition (log2 RLU vs DMSO / staurosporine), 1e-11 to 1e-4 M (% x log10 M); higher = more growth inhibition
# HGGX2 = test system: HGGX2 (paediatric high-grade glioma line)
# Method in brief: (§1)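 Patient-derived pHGG/DIPG cell lines and astrocytes were plated in 384-well plates coated with 1% Geltrex and treated in triplicate with a 10-point threefold dilution series whose mean top concentration was 35 μM, for 7 days (3 days for iAstro) at 37 °C and 5% CO2. CellTiter-Glo luminescence was log2-transformed and scaled on each plate to % activity between solvent and positive controls. Area under the curve came from the trapezoid rule applied to a fitted log-logistic curve, or to a smoothing spline where the sigmoid fit failed.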
# HGGX39 = test system: HGGX39 (paediatric high-grade glioma line)
# Method in brief: as §1
# SUDIPGVI = test system: SUDIPGVI (diffuse intrinsic pontine glioma line)
# Method in brief: as §1
# SUDIPGXXI = test system: SUDIPGXXI (diffuse intrinsic pontine glioma line)
# Method in brief: as §1
# SUDIPGXVII = test system: SUDIPGXVII (diffuse intrinsic pontine glioma line)
# Method in brief: as §1
# SUDIPGXIX = test system: SUDIPGXIX (diffuse intrinsic pontine glioma line)
# Method in brief: as §1
# SUDIPGIV = test system: SUDIPGIV (diffuse intrinsic pontine glioma line)
# Method in brief: as §1
# DIPGX29 = test system: DIPGX29 (H3.3 K27M diffuse intrinsic pontine glioma line)
# Method in brief: as §1
# HGGX42 = test system: HGGX42 (H3.3 G34R paediatric high-grade glioma line)
# Method in brief: as §1
# iAstro = test system: iAstro (astrocyte control)
# Method in brief: as §1
# DIPGX7 = test system: DIPGX7 (H3.3 K27M diffuse intrinsic pontine glioma line)
# Method in brief: as §1
SMILES,area under dose-response curve (HGGX2),area under dose-response curve (HGGX39),area under dose-response curve (SUDIPGVI),area under dose-response curve (SUDIPGXXI),area under dose-response curve (SUDIPGXVII),area under dose-response curve (SUDIPGXIX),area under dose-response curve (SUDIPGIV),area under dose-response curve (DIPGX29),area under dose-response curve (HGGX42),area under dose-response curve (iAstro),area under dose-response curve (DIPGX7)
O=C(Nc1ccc([N+](=O)[O-])cc1Cl)c1cc(Cl)ccc1O [NICOLSAMIDE],119,115,109,232,141,142,146,123,129,49.6,153
CCNC(=O)c1noc(-c2cc(C(C)C)c(O)cc2O)c1-c1ccc(CN2CCOCC2)cc1 [NVP-AUY922],180,275,118,318,218,274,183,204,147,118,94.5
CCCS(=O)(=O)c1nc(NC2CC2)cc(-c2ccc3c(ccn3C3CC(C)(C)NC(C)(C)C3)c2)n1 [NVS-1],169,130,158,140,154,174,138,172,185,143,166
COC1=CC(c2cc3ccccc3[nH]2)=N/C1=C\c1[nH]c(C)cc1C [OBATOCLAX],217,165,210,280,128,216,177,174,196,141,219
COc1ncc(-c2ccc3nccc(-c4ccnnc4)c3c2)cc1NS(=O)(=O)c1ccc(F)cc1F [OMIPALISIB],263,224,257,366,251,326,245,219,237,64,248
C[C@@H]1O[C@@H](O[C@H]2C[C@@H](O)[C@]3(CO)[C@H]4[C@H](O)C[C@]5(C)[C@@H](C6=CC(=O)OC6)CC[C@]5(O)[C@@H]4CC[C@]3(O)C2)[C@H](O)[C@H](O)[C@H]1O [OUABAIN],173,218,123,251,186,202,284,175,127,135,279
Cc1[nH]c2ccccc2c1CCNCc1ccc(/C=C/C(=O)NO)cc1 [PANOBINOSTAT],253,212,249,355,244,293,252,228,282,134,243
OC1(c2ccc(Cl)c(C(F)(F)F)c2)CCN(CCCC(c2ccc(F)cc2)c2ccc(F)cc2)CC1 [PENFLURIDOL],175,113,126,201,126,149,152,135,160,136,163
Cc1ccc(C(=O)Nc2ccc(CN3CCN(C)CC3)c(C(F)(F)F)c2)cc1C#Cc1cnc2cccnn12 [PONATINIB],163,148,119,345,125,132,102,134,164,128,155
CCOc1cc(C(C)(C)C)ccc1C1=N[C@@](C)(c2ccc(Cl)cc2)[C@@](C)(c2ccc(Cl)cc2)N1C(=O)N1CCN(CCCS(C)(=O)=O)CC1 [RG7112],77.8,82.1,30.5,288,91.7,204,47.8,85.4,76,69.8,73.2
O=C(Nc1ccccc1-c1cn2c(CN3CCNCC3)csc2n1)c1cnc2ccccc2n1 [SRT1720],158,103,154,178,96.6,139,146,110,152,131,143
CCN(CC)CCNC(=O)c1c(C)[nH]c(/C=C2\C(=O)Nc3ccc(F)cc32)c1C [SUNITINIB],141,100,124,176,128,135,99.2,97.9,193,113,123
C=CCNC1=C2C[C@@H](C)C[C@H](OC)[C@H](O)[C@@H](C)/C=C(\C)[C@H](OC(N)=O)[C@@H](OC)/C=C\C=C(/C)C(=O)NC(=CC1=O)C2=O [TANESPIMYCIN],83,242,42.2,223,89.8,214,138,132,103,50.9,89.8
CN(C)C/C=C/C(=O)Nc1ccc(C(=O)Nc2cccc(Nc3ncc(Cl)c(-c4c[nH]c5ccccc45)n3)c2)cc1 [THZ1],349,272,345,460,329,343,342,301,360,186,356
